The record followed here is patent publication US20240382608A1, “NOVEL LIGAND-DRUG CONJUGATE OF CAMPTOTHECIN ANALOGS, INTERMEDIATES, PHARMACEUTICAL COMPOSITION AND APPLICATION THEREOF” (SHANGHAI MICURX PHARMACEUTICAL CO., LTD., priority 2023, published 2024).

Where two headings read alike, the source gives them in different places.

The subject of one series is A549. In words: In vitro cytotoxicity test of camptothecin payloads (CellTiter-Glo). Conditions: Homo sapiens, A549, 72 h. Format: cell-based. The method, then:
(§1) Human lung adenocarcinoma cell line A549, NCI-N87, and SK-BR-3 were used to evaluate the cytotoxicity of small molecule fragment of the present invention. These cells were seeded to a 96-well plate at 2000 cells per well.

A further series deals with NCI-N87. The series is described as above. Format: cell-based. Conditions: Homo sapiens, NCI-N87, 72 h, read-out: NCI-N87 Cytotoxicity IC50 (nM). The method, then: as §1
The test system of the next series is SK-BR-3. Described as above. Format: cell-based. Conditions: Homo sapiens, SK-BR-3, 72 h, read-out: SK-BR-3 Cytotoxicity IC50 (nM). Here is the method: as §1
The next series is described as follows: Rat PK study. Format: in vivo. Conditions: Sprague-Dawley (SD). The method, then:
Male SD rat, 180-200 g (BK lab. Animal Ltd.), 3 Rats/group. Blood samples were collected by orbital vein after IV administration 1 mg/kg dosage at 0.083, 0.5, 1, 2, 4, and 8 h into heparin-containing tubes, centrifugated at 10000 rpm for 3 min to get plasma. All samples were stored at −20° C. until they were sent to Suzhou Chengyao Biotech Co., Ltd. for analysis.

The mark [1] stands for this setting: read-out: A549 Cytotoxicity IC50 (nM).
[2] abbreviates: male, rat, in vivo, iv, 1 mg/kg.

With `CC[C@@]1(O)C(=O)OCc2c1cc1n(c2=O)Cc2c-1nc1cc(F)c(C)c3c1c2[C@@H](NC(=O)CO)CC3` [drawing 109], the IC50 turned out to be 163 nM in the series on A549 (setting [1]), 26 nM in the series with NCI-N87 and 802 nM in the series with SK-BR-3.
As to `CC[C@@]1(O)C(=O)OCc2c1cc1n(c2=O)Cc2c-1nc1cc(F)c(N)c3c1c2C=CS3` [Example 2, (S)-4-amino-9-ethyl-5-fluoro-9-hydroxy-12,15-dihydro-13H-pyrano[3′,4′:6,7]indolizino[1,2-b]thiopyrano[4,3,2-de]quinoline-10,13(9H)-dione], the IC50 with A549 (setting [1]) came to 0.8 nM.
For `CC[C@@]1(O)C(=O)OCc2c1cc1n(c2=O)Cc2c-1nc1cc(F)c(C)c3c1c2[C@@H](NC(=O)CO)CC3` [drawing 111], the MRT inf in “Rat PK study” (in vivo, male SD rat, IV 1 mg/kg, plasma, read-out: MRT0-∞) came to 30 min. Besides, the half-life in the series “Rat PK study” (in vivo, male SD rat, IV 1 mg/kg, plasma, read-out: T1/2 (converted)) was 30 min. Besides, in the series “Rat PK study” (in vivo, male SD rat, IV 1 mg/kg, plasma, read-out: Vss), the Vd amounted to 20.6 L/kg.
As to `CC[C@@]1(O)C(=O)OCc2c1cc1n(c2=O)Cc2c-1nc1ccc(N)c3c1c2CCS3` [drawing 110], the IC50 with A549 (cell viability after 3 days, 2000 cells per well, read-out: A549 Cytotoxicity IC50) was 22.3 nM.
As to `CC[C@@]1(O)C(=O)OCc2c1cc1n(c2=O)Cc2c-1nc1ccc(N)c3c1c2CCS3` [drawing 112], the MRT inf in the series “Rat PK study” (male SD rat, IV 1 mg/kg, plasma, read-out: MRT0-∞) came to 114 min. Further, in “Rat PK study” (male SD rat, IV 1 mg/kg, plasma, read-out: T1/2 (converted)), the half-life is 126 min. In addition, in “Rat PK study” (male SD rat, IV 1 mg/kg, plasma, read-out: Vss), the Vd is 7.2 L/kg.
On to `CC[C@@]1(O)C(=O)OCc2c1cc1n(c2=O)Cc2c-1nc1ccc(N)c3c1c2C=CS3` [Example 1, (S)-4-amino-9-ethyl-9-hydroxy-12,15-dihydro-13H-pyrano[3′,4′:6,7]indolizino[1,2-b]thiopyrano[4,3,2-de]quinoline-10,13(9H)-dione], for which the IC50 in the series on A549 (setting [1]) was determined as 10.7 nM. The IC50 with NCI-N87 was found to be 5.2 nM. Further, in the series on SK-BR-3, the IC50 is 38.6 nM. In “Rat PK study” (setting [2]), this compound had an MRT inf of 12 min, a Vd of 0.9 L/kg and a half-life of 18 min.
For `CC[C@@]1(O)C(=O)OCc2c1cc1n(c2=O)Cc2c-1nc1ccc(NC(=O)CO)c3c1c2C=CS3` [Example 13], the IC50 stood at 26.4 nM in the series on A549 (setting [1]), 21.7 nM with NCI-N87 and 52.3 nM in the series on SK-BR-3.
